These results are taken from patent publication US5962533A, “Hydroxy polyamines” (priority 1996, dated 1999).

Read-outs that look alike come from different tables or passages of the source.

Series [1] can be described thus: Protonation state at physiological pH assumed from measured pKa values. It counts as physicochemical. To be noted: physiological pH of 7.2. As for the experimental part:
All of the non-aromatic, non-trifluoroethylated tetraamines are largely in the form of the tetracation at the physiological pH of 7.2. The spermine analogues (13-16 and 34) and the homospermine analogues and homologues (18-26, 29 and 31-33) should be 85 and 97%, respectively, in the form of the tetracations. The norspermine analogues (9-12) should be at least 74% in the form of the tetracations. […] Thus, the calculation of atomic charges and conformational search of these analogues were carried out based on the anticipated protonated structures.

For series [2], the system named is polyamine transport apparatus. Briefly: Competition with radiolabeled spermidine for uptake into L1210 cells (Ki). Format: cell-based, Murine. As for the experimental part:
The same cell line was utilized to evaluate the tetraamines's competition with radiolabeled spermidine for the polyamine uptake apparatus (Ki). The Ki values here are the concentrations of drugs required to inhibit the uptake of radioactive spermidine transport by 50% (Table 1).
Uptake Determinations. The polyamine derivatives were studied for their ability to compete with [^3 H]SPD or [^14 C]SPD for uptake into L1210 leukemia cells in vitro. Cell suspensions were incubated in 1 ml of RPMI-1640 containing 1, 2, 4, 6, 8 and 10 μm radiolabeled SPD alone or with the additional presence of 10, 25 and 50 μm polyamine analogue for 20 minutes at 37° C. At the end of the incubation period, tubes were centrifuged at 900 g for 5 minutes at 0-4° C. The pellet was washed twice with 5 ml of cold RPMI-1640 containing 1 mm SPD, dissolved in 200 μl of 1N NaOH at 60° C. for 1 hour, and neutralized with 1N HCl. The material was transferred to a vial for scintillation counting.

Series [3] deals with castor oil-induced diarrhea. The series can be described thus: Castor oil-induced diarrhea. Format: in vivo, rat. To be noted: rat; for stool output / diarrhea during 6 hour assay (FIG. 8): subcutaneous injection 30 minutes before castor oil 5 ml/kg. From the text:
Castor Oil-Induced Diarrhea. Male Sprague-Dawley rats (350-400 g) were fasted overnight in hanging wire cages and allowed free access to water.

Series [4] in a line: Acute toxicity, single intraperitoneal injection. To be noted: mouse, in vivo, ip.
Where [5] appears, read: tetraamine analogues, L1210 cells, radiolabeled spermidine uptake, read-out: Ki, actual (Table 1).
The mark [6] stands for this setting: triamine analogues, bioassay results not in model data set, read-out: Ki, Actual (Table 2).

The term Ki denotes the equilibrium dissociation constant of an inhibitor or competing ligand from its target. As usually defined, the LD50 is the dose at which mortality reaches 50%. A high value points to lower toxicity.

Consider `c1cc(CNCCCCNCc2ccncc2)ccn1` [PYR(4,4,4)], for which the protonation state result in series [1] is listed as “almost exclusively in the form of the internal dication”. In series [2] (setting [5]), the Ki was greater than 500 µM.

In the case of `NCCCNCCCN` [NSPD, norspermidine], the Ki in series [2] (setting [6]) was 8.4 µM.

Regarding `C(CCNCCCCNC12CC3CC(CC(C3)C1)C2)CNCCCCNC12CC3CC(CC(C3)C1)C2` [BAHSPM], the Ki in series [2] (setting [5]) came out at 2 µM.

`CCNCCCCNCCCN` [N^8 -MESPD]: in series [2] (setting [6]), the Ki came to 7 µM.

For `NCCCCNCCCCNCCCCN` [HSPM, homospermine], the “stool output / diarrhea during 6 hour assay (FIG. 8)” value in series [3] is reported as “became diarrheal during the 6 hour assay”.

Take `CNCCCCNCCCCNCCCCNC` [DMHSPM]: the inhibitory constant (Ki) in series [2] (setting [5]) came to 0.97 µM.

Turning to `CCNCCCNCCCNCCCN` [MENSPM, N^1 -ethylnorspermine], the inhibition constant Ki in series [2] (setting [5]) was 7.7 µM.

In the case of `CCCNCCCNCCCNCCCNCCC` [DPNSPM], the anti-diarrheal activity entry in series [3] (15 mg/kg) is reported as “far less active than the homospermine compounds”. Besides, in series [3], the “stool output / diarrhea during 6 hour assay (FIG. 8)” value was “became diarrheal during the 6 hour assay”.

With `c1cc(NCCCNc2ccncc2)ccn1` [PYR(3,3,3)], the protonation state entry in series [1] is recorded as “terminal dication”. Besides, the inhibitory constant (Ki) in series [2] (setting [5]) is greater than 500 µM.

Consider `CCNCCCCNCCCNCC` [DESPD], for which the inhibition constant Ki in series [2] (setting [6]) is 19.3 µM.

As to `CCNCCCCNCCCCCNCCCCNCC` [DE(4,5,4)], the Ki in series [2] (setting [5]) was 6 µM.

In the case of `C(CCNCCC1CCNCC1)CNCCC1CCNCC1` [PIP(5,4,5)], the Ki in series [2] (setting [5]) worked out at 18.1 µM.

On to `CNCCCNCCCNCCCNC` [DMNSPM], for which, in series [2] (setting [5]), the Ki was 5.6 µM.

On to `CCNCCCNCCCNCCCNCC` [DENSPM, Diethylnorspermine], for which the LD50 in series [4] stood at 325 mg/kg. Moreover, the anti-diarrheal activity result in series [3] (40 mg/kg) is “far less active than the homospermine compounds”. Further, the “stool output / diarrhea during 6 hour assay (FIG. 8)” value in series [3] is “became diarrheal during the 6 hour assay”. In addition, in series [2] (setting [5]), the inhibition constant Ki turned out to be 17 µM.

With `CCNCCCNCCCCN` [N^1 -MESPD], in series [2] (setting [6]), the Ki came out at 8.6 µM.

Regarding `CCNCCCNCCCNCC` [DENSPD], the Ki in series [2] (setting [6]) is 200 µM.

On to `CCNCCCCNCCCNCCCCNCC` [DE(4,3,4)], for which the Ki in series [2] (setting [5]) was 4 µM.

Regarding `CCNCCCCNCCCCNCC` [DEHSPD], the Ki in series [2] (setting [6]) was 115 µM.

For the molecule `C(CCNC1CCNCC1)CNC1CCNCC1` [PIP(3,4,3)], the Ki in series [2] (setting [5]) turned out to be 60.5 µM.

Take `CCNCCCCNCCCCNCCCNCC` [DE(3,4,4)]: the Ki in series [2] (setting [5]) amounted to 8 µM.

Take `CCCNCCCNCCCCNCCCNCCC` [DPSPM]: the Ki in series [2] (setting [5]) came out at 2.3 µM.

Take `CCNCCCNCCCCNCCCNCC` [DESPM]: in series [2] (setting [5]), the Ki turned out to be 1.6 µM.

As to `NCCCCNCCCCN` [HSPD], in series [2] (setting [6]), the inhibition constant Ki came to 3.5 µM.

As for `CC(C)NCCCCNCCCCNCCCCNC(C)C` [DIPHSPM], the Ki in series [2] (setting [5]) amounted to 8.1 µM.

`CC(C)(C)NCCCCNCCCCNCCCCNC(C)(C)C` [DTBHSPM]: the inhibition constant (Ki) in series [2] (setting [5]) came to 56 µM.

`CCNCCCCNCCCCNCCCCN` [MEHSPM, N^1 -ethylhomospermine]: the inhibition constant (Ki) in series [2] (setting [5]) was determined as 1.1 µM.

`FC(F)(F)CNCCCNCCCCNCCCNCC(F)(F)F` [FDESPM, N^1,N^12-bis(2,2,2-trifluoroethyl)spermine]: the protonation state result in series [1] is given as “almost exclusively in the form of the internal dication”. For the same molecule, in series [2] (setting [5]), the inhibition constant (Ki) was found to be 285 µM.

As for `C(CCNCC1CCNCC1)CNCC1CCNCC1` [PIP(4,4,4)], the Ki in series [2] (setting [5]) was found to be 4.9 µM.

For `CCNCCCCNCCCCNCCCCNC(C)(C)C` [ETBHSPM], the inhibition constant Ki in series [2] (setting [5]) turned out to be 3 µM.

For the molecule `CNCCCNCCCCNCCCNC` [DMSPM], the inhibitory constant (Ki) in series [2] (setting [5]) was determined as 1.1 µM.

Take `CC(C)NCCCNCCCNCCCNC(C)C` [DIPNSPM]: in series [2] (setting [5]), the Ki came to 40 µM.
